Reference: patent publication US6814960B1, “Hydroxystilbene compounds used as microbicidal active substances” (Ciba Specialty Chemicals Corporation, priority 1998, dated 2004)

Assays:
Test in all cases: MIC value in microtitre plates (optical density)
Assay type in all cases: cell-based
[1] = tested on: Escherichia coli NCTC 8196; details: microtitre plate, CASO bouillon, 48 hours at 37° C., optical density 620 nm, ≦20% growth; some data indicative values
Method: (§1) Determination of the Minimum Inhibiting Concentration (MIC Value) in Microtitre Plates
(§2) Casein/soybean flour peptone bouillon for the preparation of the precultures of the test bacteria and yeast.
(§3) Mycological slant agar for the preculture of moulds.
(§4) Examples of Test Organisms
(§5) The test substances are predissolved in dimethyl sulfoxide (DMSO) and tested in a serial dilution of 1:2.
(§6) Bacteria and yeast are cultured overnight in CASO bouillon, the mould on mycological slant agar and rinsed off with 10 ml of 0.85% sodium chloride solution (+0.1% TritonX-100).
(§7) All test organisms are adjusted to an organism count of 1.5×10^6 CFU/ml with 0.85% sodium chloride solution.
(§8) The test substances are prepipetted into microtitre plates in an amount of 8 μl per well.
(§9) Previously diluted organism substances are diluted 1:100 in CASO bouillon (bacteria and yeast) and Sabouraud 2% glucose bouillon (mould) and added to the test substances in an amount of 192 μl per well.
(§10) The test batches are incubated for 48 hours at 37° C. (bacteria and yeast) or for 5 days at 28° C. (mould).
(§11) After incubation, the growth is determined by reference to the turbidity of the test batches (optical density) at 620 nm in a microplate reader.
(§12) The minimum inhibiting concentration (MIC value) is the concentration of substance at which (compared with the growth control) an appreciable inhibition of the growth (≦20% growth) of the test organisms is ascertained.
(§13) One microtiter plate is used for each test organism and substance concentration. All substances tested in duplicate.

[2] = tested on: Aspergillus niger ATCC 6275; details: microtitre plate, Sabouraud 2% glucose bouillon, 5 days at 28° C., optical density 620 nm, ≦20% growth; some data indicative values
Method: as §1, §2, §3, §4, §5, §6, §7, §8, §9, §10, §11, §12, §13

[3] = tested on: Pseudomonas aeruginosa CIP A-22; details: microtitre plate, CASO bouillon, 48 hours at 37° C., optical density 620 nm, ≦20% growth; some data indicative values
Method: as §1, §2, §3, §4, §5, §6, §7, §8, §9, §10, §11, §12, §13

[4] = tested on: Candida albicans ATCC 10231; details: microtitre plate, CASO bouillon, 48 hours at 37° C., optical density 620 nm, ≦20% growth; some data indicative values
Method: as §1, §2, §3, §4, §5, §6, §7, §8, §9, §10, §11, §12, §13

[5] = tested on: Staphylococcus hominis DSM 20328; details: microtitre plate, CASO bouillon, 48 hours at 37° C., optical density 620 nm, ≦20% growth; some data indicative values
Method: as §1, §2, §3, §4, §5, §6, §7, §8, §9, §10, §11, §12, §13

Compound	MIC values E. coli [1]	MIC values A. niger [2]	MIC values P. aeruginosa [3]	MIC values C. albicans [4]	MIC values S. heminis [5]
Oc1ccccc1/C=C/c1ccccc1 [Comp. of formula 113]	100 ppm	60 ppm	>100 ppm	60 ppm	100 ppm
COc1ccc(/C=C/c2ccc(O)cc2)cc1 [Comp. of formula 131]	>100 ppm	>100 ppm	>100 ppm	>100 ppm	>100 ppm
COc1ccc(/C=C/c2ccccc2C)cc1O [Comp. of formula 170]	>100 ppm	>100 ppm	>100 ppm	>100 ppm	>100 ppm
COc1ccc(/C=C/c2cccc(O)c2)cc1 [Comp. of formula 132]	>100 ppm	>100 ppm	>100 ppm	>100 ppm	>100 ppm
CCOc1cc(/C=C/c2cccc3ccccc23)ccc1O [Comp. of formula 159]	>100 ppm	100 ppm	>100 ppm	>100 ppm	>100 ppm
COc1cc(/C=C/c2ccc(-c3ccccc3)cc2)ccc1O [Comp. of formula 148]	>100 ppm	>100 ppm	>100 ppm	>100 ppm	>100 ppm
Cc1cccc(/C=C/c2cccc3ccccc23)c1O [Comp. of formula 165]	>100 ppm	100 ppm	>100 ppm	>100 ppm	100 ppm
Oc1ccc(/C=C/c2ccc(Cl)cc2)cc1 [Comp. of formula 119]	>100 ppm	100 ppm	>100 ppm	15 ppm	7.5 ppm
Cc1ccc(/C=C/c2ccccc2O)cc1 [Comp. of formula 186]	30 ppm	60 ppm	100 ppm	30 ppm	30 ppm
CCOc1cc(/C=C/c2ccccc2C)ccc1O [Comp. of formula 171]	>100 ppm	>100 ppm	>100 ppm	>100 ppm	>100 ppm
Cc1ccc(/C=C/c2cccc(C)c2O)cc1 [Comp. of formula 189]	100 ppm	>100 ppm	>100 ppm	>100 ppm	>100 ppm
COc1cc(/C=C/c2ccc(-c3ccccc3)cc2)cc(O)c1OC [Comp. of formula 151]	>100 ppm	>100 ppm	>100 ppm	>100 ppm	>100 ppm
COc1cc(/C=C/c2cccc3ccccc23)cc(O)c1OC [Comp. of formula 163]	>100 ppm	100 ppm	>100 ppm	>100 ppm	>100 ppm
CCOc1cc(/C=C/c2ccc(C)cc2)ccc1O [Comp. of formula 183]	>100 ppm	>100 ppm	>100 ppm	>100 ppm	>100 ppm
CCOc1cc(/C=C/c2ccccc2)ccc1O [Comp. of formula 110]	>100 ppm	>100 ppm	>100 ppm	>100 ppm	>100 ppm
Oc1ccc(/C=C/c2ccccc2)cc1 [Comp. of formula 107]	>100 ppm	100 ppm	>100 ppm	>100 ppm	100 ppm
COc1ccc(/C=C/c2ccc(Cl)cc2)cc1O [Comp. of formula 121]	>100 ppm	>100 ppm	>100 ppm	>100 ppm	>100 ppm
COc1ccc(/C=C/c2cccc(C)c2O)cc1 [Comp. of formula 140]	>100 ppm	100 ppm	>100 ppm	>100 ppm	>100 ppm
COc1ccc(/C=C/c2ccccc2)cc1O [Comp. of formula 109]	>100 ppm	100 ppm	>100 ppm	>100 ppm	>100 ppm
COc1ccc(/C=C/c2cccc3ccccc23)cc1O [Comp. of formula 158]	>100 ppm	>100 ppm	>100 ppm	>100 ppm	>100 ppm
COc1cc(/C=C/c2cccc3ccccc23)ccc1O [Comp. of formula 160]	>100 ppm	100 ppm	>100 ppm	>100 ppm	>100 ppm
Oc1cccc(/C=C/c2cccc3ccccc23)c1 [Comp. of formula 157]	15 ppm	60 ppm	>100 ppm	15 ppm	7.5 ppm
Cc1cccc(/C=C/c2ccc(-c3ccccc3)cc2)c1O [Comp. of formula 153]	>100 ppm	>100 ppm	>100 ppm	>100 ppm	>100 ppm
COc1ccc(/C=C/c2ccc(-c3ccccc3)cc2)cc1O [Comp. of formula 146]	>100 ppm	>100 ppm	>100 ppm	>100 ppm	>100 ppm
Cc1ccccc1/C=C/c1ccccc1O [Comp. of formula 174]	100 ppm	60 ppm	>100 ppm	60 ppm	60 ppm
Oc1cccc(/C=C/c2ccc(-c3ccccc3)cc2)c1 [Comp. of formula 145]	>100 ppm	>100 ppm	>100 ppm	>100 ppm	>100 ppm
COc1cc(/C=C/c2ccccc2)ccc1O [Comp. of formula 111]	>100 ppm	100 ppm	>100 ppm	>100 ppm	>100 ppm
